The text below walks through data of US20130338217A1, “ANTIBIOTIC COMPOSITION INCLUDING PHLOROTANNIN COMPOUND DERIVED FROM EISENIA BICYCLIS AS EFFECTIVE COMPONENT” (PUKYONG NATIONAL UNIVERSITY INDUSTRY-UNIVERSITY C, priority 2012, published 2013).

In general, MIC refers to the lowest concentration that inhibits growth of the organism.

Format in all cases: cell-based, Staphylococcus aureus
In experiment [1] the test system is MRSA (KCCM 40511). The experiment can be described thus: Minimum inhibitory concentration, two-fold serial dilution, MRSA KCCM 40511. As for the experimental part:
(§1) All the bacterial strains used for the Example were obtained from the Korean Collection of Type Cultures (KCTC; Daejeon, Korea) and the Korean Culture Center of Microorganisms (KCCM; Seoul, Korea). The bacterial strains used for the Example were methicillin-susceptible S. aureus (MSSA; KCTC 1927), two MRSA strains (KCCM 40510 and KCCM 40511). All strains were grown in Mueller-Hinton broth (MHB; Difco, Detroit, USA) or Tryptic soy broth (TSB; Difco) for minimum inhibitory concentration (MIC) assay and in Mueller-Hinton agar (MHA; Difco) for disc diffusion.
(§2) MIC means the lowest concentration of antimicrobials that will inhibit the visible growth of microorganisms after overnight incubation. MICS of the extracts and vancomycin were determined by the two-fold serial dilution method in MHB.

For experiment [2], the system named is MSSA (KCTC 1927). The experiment can be described thus: Minimum inhibitory concentration, two-fold serial dilution, MSSA KCTC 1927. As for the experimental part: as §1, §2
Experiment [3] concerns MRSA (KCCM 40510). The experiment can be described thus: Minimum inhibitory concentration, two-fold serial dilution, MRSA KCCM 40510. On the procedure:
as §1, §2

The subject of experiment [4] is mec operon (mecA, mecI, mecR1). The experiment can be described thus: RT-PCR of drug resistance related genes in MRSA. As to conditions: MRSA cells treated with various concentrations. As for the experimental part: In order to elucidate the inhibitory effect of phlorofucofuroeckol-A on expression of drug resistance related genes, MRSA cells were treated with various concentrations of phlorofucofuroeckol-A. After cell harvesting, Total RNA was isolated from the strains with zirconia beads and RNAwiz with the manufacturer's specifications. RNA concentrations were estimated via spectrophotometer at 260 nm. The 0.2-1.4 μg of total RNA plus 1.4 μg of random primer was denatured at 65° C. for 5 min, then cooled at 30 sec and preincubated for 2 min at 37° C. after the addition of 10 mM dithioothreitol (DTT), 2.5 mM each of dNTPs, and reaction buffer. Any remaining cRNA was removed via the addition of 2 units RNase H at 37° C. for 20 min. One hundred units of Superscript II reverse transcriptase were added and incubated for 50 min at 37° C. The reaction was then suspended at 70° C. for 15 min. One point five percent of the RT products were added to a PCR reaction which included PCR buffer (pH 8.4, 20 mM Tris, 50 mM KCl), 1.5 mM MgCl2, 0.5 mM dNTPs, 2 pM primers and 0.1 μL Taq DNA polymerase. Twenty-eight PCR cycles were then conducted follows: denaturation at 95° C. annealing at an indicated temperature for each primer and extension at 72° C. […]

Experiment [5] concerns MRSA. Description: Synergy of PFF with β-lactams against MRSA as stated in text. As to conditions: PFF 25 pg/mL as printed. As for the experimental part:
(§3) The interaction between phlorofucofuroeckol-A (PFF) and β-lactams including ampicillin, penicillin and oxacillin against MRSA was tested by the checkerboard method. The synergistic effect was evaluated as a fractional inhibitory concentration (FIC) index. The FIC was calculated as the MICS of an antibiotic or phlorofucofuroeckol-A (PFF) in combination divided by the MIC of the antibiotic or PFF alone as follows.

The subject of experiment [6] is PBP2a. The experiment can be described thus: Western blot of PBP2a in MRSA. The note with it: MRSA cells treated with various concentrations. On the procedure: In order to elucidate the inhibitory effect of phlorofucofuroeckol-A on expression of a drug resistance related protein, PBP2a, MRSA cells were treated with various concentrations of phlorofucofuroeckol-A. After cell harvesting, the bacterial lysates were prepared in a lysis buffer containing 20 mM Tris-HCl (pH 7.5), 2 mM ethyleneglycoltetraacetic acid (EGTA), 2 mM ethylenediaminetetraacetic acid (EDTA) and 0.25 M sucrose. The pellets were resuspended by sonication in lysis buffer 2 times for 20 sec. Following 10 min of centrifugation at 13,000×g, the supernatant was obtained as the cell lysate. Protein concentrations were measured with Bradford protein assay. An equal amount of 2×SDS-PAGE sample buffer (pH […], 1 mM EGTA, 1 mM EDTA, 1% SDS, 150 mM NaCl) was added to the tubes containing the cell lysate and the tubes were boiled for 3 min. Aliquots of cellular proteins were then electrophoresed on 10%.
For orientation: Immunoblotting shows a protein as a band on a membrane.

Experiment [7] has as its system MRSA (KCCM 40510). Description: Checkerboard synergy of phlorofucofuroeckol-A and β-lactams, MRSA KCCM 40510. As to conditions: for MIC: Staphylococcus aureus; for FIC index (b): β-lactam with phlorofucofuroeckol-A at 12.5 μg/ml; for FIC index (b) / FIC index (c): synergism ≦0.5, indifference >0.5 to ≦4, antagonism >4; for FIC index (c): β-lactam with phlorofucofuroeckol-A at 25 μg/ml. As for the experimental part:
as §3
(§4) The FIC was then summed to derive the FIC index, which indicated synergy when index values were as follows:
(§5) synergism ≦≦0.5, indifference >0.5 to ≦≦4, antagonism >4.
(§6) FICA=MICA in combination/MICA, FICB=MICB in combination/MICB

Experiment [8] relates to MRSA (KCCM 40511). The experiment can be described thus: Checkerboard synergy of phlorofucofuroeckol-A and β-lactams, MRSA KCCM 40511. The note with it: for MIC: Staphylococcus aureus; for FIC index (b): β-lactam with phlorofucofuroeckol-A at 12.5 μg/ml; for FIC index (b) / FIC index (c): synergism ≦0.5, indifference >0.5 to ≦4, antagonism >4; for FIC index (c): β-lactam with phlorofucofuroeckol-A at 25 μg/ml. As for the experimental part: as §3, §4, §5, §6

Experiment [9] has as its system MSSA (KCCTC 1927). The experiment can be described thus: Checkerboard synergy of phlorofucofuroeckol-A and β-lactams, MSSA KCTC 1927. As to conditions: for MIC: Staphylococcus aureus, MSSA; for FIC index (b): β-lactam with phlorofucofuroeckol-A at 12.5 μg/ml; for FIC index (b) / FIC index (c): synergism ≦0.5, indifference >0.5 to ≦4, antagonism >4; for FIC index (c): β-lactam with phlorofucofuroeckol-A at 25 μg/ml.

Where [10] appears, read: Table 5, PFF and β-lactams, mecA positive strain.
[11] abbreviates: Table 6, isolated phlorotannins.
[12] abbreviates: Table 5, PFF and β-lactams, mecA negative strain.
The mark [13] stands for this setting: Staphylococcus aureus, Table 5, PFF and β-lactams, mecA positive strain, read-out: MIC.
Where [14] appears, read: Staphylococcus aureus, Table 5, PFF and β-lactams, mecA negative strain, read-out: MIC.
[15] abbreviates: in combination with phlorofucofuroeckol-A at 12.5 μg/ml, read-out: MIC of β-lactam (B).
Setting [16] is: in combination with phlorofucofuroeckol-A at 25 μg/ml, read-out: MIC of β-lactam (C).
Setting [17] is: without phlorofucofuroeckol-A, read-out: MIC of β-lactam (A).
The mark [18] stands for this setting: in combination with phlorofucofuroeckol-A at 12.5 μg/ml.
Where [19] appears, read: in combination with phlorofucofuroeckol-A at 25 μg/ml.
Setting [20] is: Staphylococcus aureus, Table 6, isolated phlorotannins, read-out: MIC.

Converted amounts (≈) assume the structure as drawn. Where two headings read alike, the source gives them in different places.

Chain of PBP2a (P07944 whole entry): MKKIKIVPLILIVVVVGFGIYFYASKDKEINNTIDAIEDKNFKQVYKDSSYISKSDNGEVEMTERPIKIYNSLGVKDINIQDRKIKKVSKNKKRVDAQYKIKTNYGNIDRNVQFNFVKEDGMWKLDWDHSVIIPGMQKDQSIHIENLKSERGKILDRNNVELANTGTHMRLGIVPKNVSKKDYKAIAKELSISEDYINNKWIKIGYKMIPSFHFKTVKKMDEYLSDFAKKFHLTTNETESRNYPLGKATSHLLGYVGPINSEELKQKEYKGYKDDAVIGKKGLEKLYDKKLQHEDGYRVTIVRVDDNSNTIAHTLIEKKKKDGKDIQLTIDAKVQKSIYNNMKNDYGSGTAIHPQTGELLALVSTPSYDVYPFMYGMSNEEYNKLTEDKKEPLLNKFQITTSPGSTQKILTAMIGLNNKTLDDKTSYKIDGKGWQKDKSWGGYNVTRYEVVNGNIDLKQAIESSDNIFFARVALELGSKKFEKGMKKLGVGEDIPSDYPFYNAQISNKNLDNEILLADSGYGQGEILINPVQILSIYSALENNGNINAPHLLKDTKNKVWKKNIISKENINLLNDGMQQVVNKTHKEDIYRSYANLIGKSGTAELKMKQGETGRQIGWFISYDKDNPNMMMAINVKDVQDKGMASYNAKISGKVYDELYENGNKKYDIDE

For the compound `Oc1cc(O)c2oc3cc(O)c4oc5cc(O)cc(O)c5oc4c3oc2c1` [DD, dioxinodehydroeckol], the MIC in experiment [1] (Staphylococcus aureus), in experiment [2] (Staphylococcus aureus) and in experiment [3] (Staphylococcus aureus) was 64 µg/mL (≈ 173 µM) each time.

In the case of phlorofucofuroeckol A [PFF], the MIC in [1] (setting [10]), in experiment [1] (setting [11]), in experiment [2] (setting [12]), in experiment [2] (setting [11]), in experiment [3] (setting [10]) and in experiment [3] (setting [11]) was 32 µg/mL each time. Also, in [4], the “gene transcription of mec operon (mecA, mecI, mecR1)” value is given as “inhibited the gene transcription of mec operon (mecA, mecI, mecR1) involving in synthesizing PBP2a depending on the concentrations”. Further, the “effect on the MICs of the β-lactams against MRSA” value in [5] is “remarkably reduce the MICS of the β-lactams against MRSA”. In addition, in experiment [6], the “PBP2a synthesis (protein expression)” value is reported as “inhibited a PBP2a synthesis that is a final product of mecA gene depending on the concentrations”.

Regarding `Cc1onc(-c2ccccc2)c1C(=O)N[C@@H]1C(=O)N2[C@@H]1SC(C)(C)[C@@H]2C(=O)O` [Oxacillin, oxacillin], the MIC was 128 µg/mL (≈ 319 µM) in experiment [1] (setting [13]); 0.063 µg/mL (≈ 0.157 µM) in experiment [2] (setting [14]); 8 µg/mL in experiment [7] (setting [15]); 4 µg/mL in experiment [7] (setting [16]); 256 µg/mL in experiment [7] (setting [17]); 256 µg/mL (≈ 638 µM) in experiment [3] (setting [13]). Besides, the MIC in experiment [8] (setting [15]) was 1 µg/mL; in [8] (setting [16]) it was 0.5 µg/mL; in experiment [8] (setting [17]), 128 µg/mL; in [9] (setting [15]), 0.063 µg/mL; in experiment [9] (setting [16]), 0.063 µg/mL; in experiment [9] (setting [17]), 0.063 µg/mL. Besides, the “FIC index (b)” value turned out to be 0.422 in experiment [7], 0.399 in experiment [8] and 1.391 in [9]. Moreover, the figures for the “FIC index (c)” value in [7], in experiment [8] and in experiment [9] were 0.407, 0.395 and 1.781, respectively.

`CN[C@H](CC(C)C)C(=O)N[C@H]1C(=O)N[C@@H](CC(N)=O)C(=O)N[C@H]2C(=O)N[C@H]3C(=O)N[C@H](C(=O)N[C@H](C(=O)O)c4cc(O)cc(O)c4-c4cc3ccc4O)[C@H](O)c3ccc(c(Cl)c3)Oc3cc2cc(c3O[C@@H]2O[C@H](CO)[C@@H](O)[C@H](O)[C@H]2O[C@H]2C[C@](C)(N)[C@H](O)[C@H](C)O2)Oc2ccc(cc2Cl)[C@H]1O` [Vancomycin, vancomycin]: the MIC in experiment [1] (Staphylococcus aureus) stood at 2 µg/mL (≈ 1.38 µM); in experiment [2] (Staphylococcus aureus) it was 0.5 µg/mL (≈ 0.345 µM); in experiment [3] (Staphylococcus aureus) it was 2 µg/mL (≈ 1.38 µM).

As to penicillin, the figures for the MIC in [1] (setting [10]), in experiment [2] (setting [12]) and in experiment [3] (setting [10]) were 256 µg/mL, 0.125 µg/mL and 512 µg/mL, respectively. For the same compound, the entries for the “MIC of β-lactam (B)” value in [7] (setting [18]), in experiment [8] (setting [18]) and in experiment [9] (setting [18]) were 4 µg/mL, 1 µg/mL and 0.125 µg/mL, respectively. Moreover, the “MIC of β-lactam (C)” value stood at 2 µg/mL in experiment [7] (setting [19]), 0.5 µg/mL in [8] (setting [19]) and 0.125 µg/mL in experiment [9] (setting [19]). In addition, the “MIC of β-lactam (A)” value in experiment [7] (without phlorofucofuroeckol-A) was 512 µg/mL; in [8] (without phlorofucofuroeckol-A) it was 256 µg/mL; in experiment [9] (without phlorofucofuroeckol-A) it was 0.125 µg/mL. Further, the results for the “FIC index (b)” value in experiment [7], in experiment [8] and in [9] were 0.399, 0.395 and 1.391, respectively. Besides, the “FIC index (c)” value in experiment [7] was determined as 0.395; in [8], 0.393; in [9], 1.781.

As to `Oc1cc(O)cc(Oc2c(O)cc(O)c3c2Oc2c(O)cc(O)cc2O3)c1` [EK, eckol], the MIC in [1] (setting [20]), in [2] (setting [20]) and in experiment [3] (setting [20]) was 64 µg/mL (≈ 172 µM) throughout.

Regarding fucofuroeckol-A [FF], the MIC in experiment [1] (setting [11]) stood at 64 µg/mL; in experiment [2] (setting [11]), 32 µg/mL; in [3] (setting [11]), 64 µg/mL.

`Oc1cc(O)cc(Oc2c(O)cc(O)c3c2Oc2c(O)cc(Oc4c(O)cc(O)cc4O)cc2O3)c1` [PE, 1-(3′,5′-dihydroxyphenoxy)-7-(2″,4″,6-trihydroxyphenoxy)-2,4,9-trihydroxydibenzo-1,4-dioxin]: the results for the MIC in [1] (setting [11]), in experiment [2] (setting [11]) and in [3] (setting [11]) were 64 µg/mL (≈ 129 µM), 64 µg/mL (≈ 129 µM) and 32 µg/mL (≈ 64.5 µM), respectively.

In the case of `CC1(C)S[C@@H]2[C@H](NC(=O)[C@H](N)c3ccccc3)C(=O)N2[C@H]1C(=O)O` [Ampicillin, ampicillin], the MIC in experiment [2] (setting [14]) was determined as 0.063 µg/mL (≈ 0.18 µM); in [7] (setting [15]) it was 16 µg/mL; in [7] (setting [16]) it was 8 µg/mL; in [7] (setting [17]) it was 512 µg/mL; in experiment [8] (setting [15]), 2 µg/mL; in experiment [8] (setting [16]), 1 µg/mL. Moreover, the MIC in experiment [8] (setting [17]) turned out to be 512 µg/mL; in experiment [9] (setting [15]), 0.063 µg/mL; in [9] (setting [16]) it was 0.063 µg/mL; in experiment [9] (setting [17]), 0.063 µg/mL. For the same compound, the “FIC index (b)” value was 0.422 in [7], 0.395 in experiment [8] and 1.391 in experiment [9]. The “FIC index (c)” value in experiment [7] turned out to be 0.407; in [8] it was 0.393; in experiment [9], 1.781.

As for `Oc1cc(O)cc(Oc2c(O)cc(O)c3c2Oc2c(O)cc(Oc4c(O)cc(Oc5c(O)cc(O)c6c5Oc5c(O)cc(O)cc5O6)cc4O)cc2O3)c1` [DE, dieckol], the MIC in experiment [1] (Staphylococcus aureus) stood at 64 µg/mL (≈ 86.2 µM); in experiment [2] (setting [20]), 32 µg/mL (≈ 43.1 µM); in experiment [3] (setting [20]) it was 32 µg/mL (≈ 43.1 µM).
